Source: ChEMBL document CHEMBL5614467, “Structure-Activity Relationship of Truncated 4'-Selenonucleosides: A3 Adenosine Receptor Activity and Binding Selectivity” (ACS Med Chem Lett, 2024)

Columns and labels:
[1] = target: Adenosine receptor A2a (Homo sapiens) (UniProt P29274); experiment: Displacement of [3H]ZM241385 from human adenosine A2A receptor extracted from human HeLa cell membrane assessed as inhibition of [3H]ZM241385 binding at 10 uM incubated for 30 mins by microplate beta scintillation counter relative to control; type: cell membranes
Adenosine receptor A3 [2] = target: T1, Adenosine receptor A3 (Homo sapiens, UniProt P0DMS8); experiment: Displacement of [3H]NECA from human adenosine A3 receptor extracted from human HeLa cell membrane assessed as inhibition constant incubated for 180 mins by microplate scintillation counter; type: cell membranes
T1 sequence (P0DMS8 whole entry): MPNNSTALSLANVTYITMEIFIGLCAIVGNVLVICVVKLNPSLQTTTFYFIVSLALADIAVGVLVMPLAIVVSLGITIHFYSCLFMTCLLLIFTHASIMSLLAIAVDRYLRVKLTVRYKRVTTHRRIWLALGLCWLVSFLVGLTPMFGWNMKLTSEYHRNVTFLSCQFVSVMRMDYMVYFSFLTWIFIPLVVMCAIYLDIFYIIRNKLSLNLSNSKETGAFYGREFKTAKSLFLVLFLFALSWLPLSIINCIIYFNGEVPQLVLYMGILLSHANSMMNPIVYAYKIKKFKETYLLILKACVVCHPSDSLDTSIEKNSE

[3] = target: T2, Adenosine receptor A2b (Homo sapiens) (UniProt P29275); experiment: Displacement of [3H]DPCPX from human adenosine A2B receptor extracted from HEK293 cell membrane assessed as inhibition of [3H]DPCPX binding at 10 uM incubated for 30 mins by microplate beta scintillation counter relative to control; type: cell membranes
T2 sequence (whole entry): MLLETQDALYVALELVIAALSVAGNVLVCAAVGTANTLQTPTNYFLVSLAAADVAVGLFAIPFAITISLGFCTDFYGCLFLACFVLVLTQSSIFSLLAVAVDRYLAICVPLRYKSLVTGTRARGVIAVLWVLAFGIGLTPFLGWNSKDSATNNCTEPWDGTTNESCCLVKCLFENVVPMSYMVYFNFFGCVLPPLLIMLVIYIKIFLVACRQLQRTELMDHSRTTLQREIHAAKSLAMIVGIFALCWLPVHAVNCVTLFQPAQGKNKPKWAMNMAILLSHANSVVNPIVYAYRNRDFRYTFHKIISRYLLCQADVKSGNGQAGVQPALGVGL

[4] = target: T3, Adenosine receptor A1 (Homo sapiens) (UniProt P30542); experiment: Displacement of [3H]DPCPX from human adenosine A1 receptor extracted from CHO cell membrane assessed as inhibition of [3H]DPCPX binding at 10 uM incubated for 60 mins by microplate beta scintillation counter relative to control; type: cell membranes
T3 sequence (whole entry): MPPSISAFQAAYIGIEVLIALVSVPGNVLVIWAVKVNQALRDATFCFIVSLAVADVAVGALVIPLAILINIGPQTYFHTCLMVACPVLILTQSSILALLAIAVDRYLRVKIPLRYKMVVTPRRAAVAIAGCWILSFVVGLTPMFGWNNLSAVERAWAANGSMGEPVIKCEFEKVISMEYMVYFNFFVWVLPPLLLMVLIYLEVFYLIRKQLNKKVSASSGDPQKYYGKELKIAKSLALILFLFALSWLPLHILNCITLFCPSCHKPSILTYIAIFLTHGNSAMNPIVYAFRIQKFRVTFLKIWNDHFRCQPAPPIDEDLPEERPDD

[5] = target: T4, Adenosine receptor A3 (Homo sapiens) (UniProt P0DMS8); experiment: Antagonist activity at human adenosine A3 receptor expressed in CHO cells assessed as inhibition of cAMP production preincubated for 15 mins followed by NECA addition for 10 mins and measured 5 mins after forskolin addition by enzyme immunoassay relative to control; type: functional, cell-based; settings: time 30.0 min
T4 sequence (whole entry): T1 sequence (P0DMS8 whole entry)

[6] = target: T4, Adenosine receptor A3 (Homo sapiens); experiment: Partial agonist activity at human adenosine A3 receptor expressed in CHO cells assessed as cAMP production preincubated for 15 mins followed by forskolin addition and measured after 5 mins by enzyme immunoassay relative to control; type: functional, cell-based; settings: filed as partial agonist, time 20.0 min
Adenosine receptor A3 [7] = target: T1, Adenosine receptor A3; experiment: Binding affinity to human adenosine A3 receptor assessed as inhibition constant
Adenosine receptor A3 [8] = target: T1, Adenosine receptor A3; experiment: Displacement of [125I]iodo-AB-MECA from human adenosine A3 receptor expressed in CHO cells assessed as inhibition constant; type: cell-based

Sequence of Adenosine receptor A2a (Homo sapiens) (P29274 whole entry): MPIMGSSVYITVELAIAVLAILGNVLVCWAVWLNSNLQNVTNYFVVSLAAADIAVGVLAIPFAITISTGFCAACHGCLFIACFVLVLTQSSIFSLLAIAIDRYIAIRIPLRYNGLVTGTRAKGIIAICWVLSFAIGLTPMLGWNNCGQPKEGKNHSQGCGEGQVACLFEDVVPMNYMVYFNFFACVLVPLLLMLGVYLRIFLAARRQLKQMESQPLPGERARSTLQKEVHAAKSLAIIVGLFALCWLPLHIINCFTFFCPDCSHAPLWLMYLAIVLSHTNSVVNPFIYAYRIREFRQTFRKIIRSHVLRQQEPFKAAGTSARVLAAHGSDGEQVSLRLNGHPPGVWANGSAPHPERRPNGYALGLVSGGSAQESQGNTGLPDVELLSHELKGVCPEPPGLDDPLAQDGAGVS

Ki (Adenosine receptor A3 [7]) | Ki (Adenosine receptor A3 [8]) | Compound | inhibition [1] | Ki (Adenosine receptor A3 [2]) | inhibition [3] | inhibition [4] | inhibition [5] | Activity [6]
– | – | O[C@@H]1[C@H](O)C[Se][C@H]1n1cnc2c(NCc3cccc(I)c3)ncnc21 | 19% | 43.2 nM | 20% | 25% | – | –
– | – | O[C@@H]1[C@H](O)C[Se][C@H]1n1cnc2c(NCc3cccc(Br)c3)ncnc21 | 28% | 20.9 nM | 37% | 39% | – | –
– | – | O[C@@H]1[C@H](O)C[Se][C@H]1n1cnc2c(NC3CCCC3)nc(Cl)nc21 | 13% | 16.9 nM | 37% | 54% | – | –
– | – | O[C@@H]1[C@H](O)C[Se][C@H]1n1cnc2c(NCc3cccc(I)c3)nc(Cl)nc21 | 24% | 109 nM | 67% | 57% | – | –
– | – | CNc1nc(Cl)nc2c1ncn2[C@@H]1[Se]C[C@@H](O)[C@H]1O | 3% | 25.2 nM | 28% | 14% | – | –
– | – | O[C@@H]1[C@H](O)C[Se][C@H]1n1cnc2c(NC3CC3)nc(Cl)nc21 | 6% | 5.7 nM | 29% | 26% | 11% | 87%
– | – | CCNc1ncnc2c1ncn2[C@@H]1[Se]C[C@@H](O)[C@H]1O | 2% | 17.5 nM | 7% | 25% | – | –
– | – | O[C@@H]1[C@H](O)C[Se][C@H]1n1cnc2c(NC3CCCC3)ncnc21 | 16% | 36.6 nM | 7% | 39% | – | –
– | – | Nc1nc(Cl)nc2c1ncn2[C@@H]1[Se]C[C@@H](O)[C@H]1O | 12% | 358 nM | 35% | 22% | – | –
1.4 nM | – | CNC(=O)C1O[C@@H](n2cnc3c(Nc4cccc(I)c4)nc(Cl)nc32)[C@H](O)[C@@H]1O (stereo partly specified) | – | – | – | – | – | –
– | 0.38 nM | CNC(=O)C1S[C@@H](n2cnc3c(Nc4cccc(I)c4)nc(Cl)nc32)[C@H](O)[C@@H]1O (stereo partly specified) | – | – | – | – | – | –
– | – | O[C@@H]1[C@H](O)C[Se][C@H]1n1cnc2c(NC3CC3)ncnc21 | 9% | 13.6 nM | 15% | 20% | – | –
– | – | O[C@@H]1[C@H](O)C[Se][C@H]1n1cnc2c(NCc3cccc(F)c3)ncnc21 | 2% | 121 nM | 8% | 12% | – | –
– | – | CCNc1nc(Cl)nc2c1ncn2[C@@H]1[Se]C[C@@H](O)[C@H]1O | 3% | 5.2 nM | 18% | 31% | – | –
– | – | O[C@@H]1[C@H](O)C[Se][C@H]1n1cnc2c(NCc3cccc(Cl)c3)nc(Cl)nc21 | 29% | 33.2 nM | 41% | 66% | – | –
– | – | Nc1ncnc2c1ncn2[C@@H]1[Se]C[C@@H](O)[C@H]1O | 33% | 238 nM | 25% | 10% | – | –
– | – | CNc1ncnc2c1ncn2[C@@H]1[Se]C[C@@H](O)[C@H]1O | 2% | 31.1 nM | 1% | 7% | – | –
– | – | O[C@@H]1[C@H](O)C[Se][C@H]1n1cnc2c(NCc3cccc(Br)c3)nc(Cl)nc21 | 35% | 38.4 nM | 43% | 62% | – | –
– | – | O[C@@H]1[C@H](O)C[Se][C@H]1n1cnc2c(NCc3cccc(Cl)c3)ncnc21 | 25% | 32.5 nM | 30% | 32% | – | –
– | – | O[C@@H]1[C@H](O)C[Se][C@H]1n1cnc2c(NCc3cccc(F)c3)nc(Cl)nc21 | 7% | 97.1 nM | 22% | 23% | – | –
